Tested on: HepG2 cells
Experiment: Hepatocyte toxicity (CCK-8 cytotoxicity test)
Type: cell-based
Settings: Homo sapiens, 72 hours, read-out: hepatotoxicity (IC50)
Method: HepG-2 and SH-SY5Y cells were prepared and placed in 10 cm dish and incubated at 37° C., 5% CO2 in a cell incubator; the cells were digested with trypsinize, resuspended and then counted. Based on a system of 100 μl/well, 8000 cells were transferred to a 96-well plate. The cells were incubated in a 37° C., 5% CO2 cell incubator for 24 hours; a gradient concentration system of compound I-1 (prepared in Example 2) was prepared, 2 times diluted, the system was 100 μl/well. The supernatant in the 96-well plate cell culture system on the first day was removed, and a fresh prepared drug concentration system was added to the corresponding culture plate wells culturing cells (set up duplicate wells). […] After completion of the culture, the supernatant was removed from the cell culture system of the 96-well plate, 100 μl of detection solution (medium containing 10% CCK-8) was add to each well, and incubated in a cell incubator at 37° C. and 5% CO2 for 1 hour, then taken it out and measured the absorbance at 450 nm with a microplate reader. Data were processed, cytotoxicity was calculated, and IC50 was calculated by GraphPad Prism. […]
A (dosing): absorbance of the well having cells, CCK-8 solution and drug solution
A (blank): absorbance of the well having medium and CCK-8 solution, without cells.
A (0 dosing): absorbance of the well having cells and CCK-8 solution, without drug solution […]

CNCC[C@@H](Oc1cccc2ccoc12)c1cccs1 [Compound I-1, (R)-3-(benzofuran-7-yloxy)-N-methyl-3-(thiophen-2-yl)propan-1-amine]
IC50: ~114 µM

— patent publication US12570643B2, “3-aryloxy-3-five-membered heteroaryl propylamine compound, and crystal form and use thereof” (Shanghai Leado Pharmatech Co. Ltd., priority 2019, dated 2026)
